Data reported in patent US20100009934A1, “BETA ADRENERGIC RECEPTOR AGONISTS FOR THE TREATMENT OF B-CELL PROLIFERATIVE DISORDERS” (CombinatoRx, Incorporated, priority 2008, published 2010).
Values joined by “and” are separate entries in the source; they are usually repeats but may differ in a detail not shown here. Identical values can stand only once. Like-named read-outs stand apart in the source and are kept apart here.

Tests used:
[1] = test system: multiple myeloma tumor cells from patients; assay: MTT cell viability assay, multiple myeloma patient tumor cells; details: patient 1 tumor cells, 48 hours, MTT; Salmeterol 0 nM (single agent); DEX (μM): 4.0, 2.0, 1.0, 0.5, 0.25, 0.125, 0.0625
Text: Tumor cells were obtained via bone marrow aspirates and affinity selected using CD138-linked magnetic beads.

[2] = test system: Human Multiple Myeloma Cells (MM.1S)
[3] = test system: human multiple myeloma xenografts (MM1S); assay: MM.1S xenograft model in SCID mice; format: in vivo, mouse; details: Dex 1 mg/kg or salmeterol 10 mg/kg, subcutaneous daily
Experimental: The human multiple myeloma cell line MM1S was injected subcutaneously into the flanks of SCID mice. Five days following the injection of MM1S cells, animals were randomized into the following four treatment groups (n=6-7) based on tumor size.
Group 1—Vehicle (90% PBS+10% EtOH)
The prepared test, positive, and negative control substances were administered via subcutaneous injection daily for up to 85 Days. During the treatment period, tumor volume and animal body weights were measured 3 times per week (Monday, Wednesday and Friday). The animals were removed from the study if there was overall poor body condition, tumor volume above 3000 mm^3, body weight loss greater than or equal to 20% or ulcerated tumors.
The slope of the tumor volume growth of each animal was calculated from the initial study day until the day each animal was removed from the study. From these slopes the mean change in tumor volume per study day was calculated.

MM.1S cells = assay: Annexin V/PI FACS assay of control MM.1S and cells cultured one month with salmeterol or salbutamol; format: cell-based, human
Experimental: Forty eight hours later, the percent of cells positive for Annexin V and propidium iodide (PI) was determined using FACS (FIG. 5).

[4] = test system: Human Multiple Myeloma Cells (MM.1S); assay: Anti-proliferation assay (ATPLite, 72 hours), MM.1S
[5] = test system: Human Multiple Myeloma Cells (MM.1S); details: Salmeterol 0 μM (single agent), DEX (μM): 0.15, 0.076, 0.038, 0.019, 0.0096
[6] = test system: Human Multiple Myeloma Cells (MM.1S) cultured in the presence of BAR agonist for one month; assay: Antiproliferative activity on MM.1S cultured one month in the presence of salmeterol or salbutamol; format: cell-based; details: Homo sapiens, MM1.S, […] dexamethasone; cells cultured one month in salmeterol (64 nM), Table 48; read-out: inhibition of proliferation
Text: A recurrent problem in cancer therapy is that prolonged exposure of tumor cells to chemotherapeutic agents can generate cells resistant to agents that initially have antiproliferative or cell killing activity. […] Cells cultured for one month in the presence of BAR agonist were washed to remove drug and put into 384 well plates for 9×9 dose matrix combination screening with BAR agonists and dexamethasone.

[7] = test system: Human Multiple Myeloma Cells (MM.1S); assay: cells; details: MM1.S
[8] = test system: Human Multiple Myeloma Cells (ANBL-6)

Compound: C[C@@H]1C[C@H]2[C@@H]3CCC4=CC(=O)C=C[C@]4(C)[C@@]3(F)[C@@H](O)C[C@]2(C)[C@@]1(O)C(=O)CO [dexamethasone]
- Reduction in Cell Viability [1]: 50% and 56% and 53% and 46% and 47%
- inhibition [2]: 39%
- study day by which all animals of the group were removed [3]: ≤ 66 study day
- Annexin V/PI+ cells (MM.1S cells; cells exposed to salmeterol for one month, 8 nM dexamethasone, 48 hours): 47%
- Annexin V/PI+ cells (MM.1S cells; cells exposed to salmeterol for one month, 80 nM dexamethasone, 48 hours): 65%
- Annexin V/PI+ cells (MM.1S cells; control cells, 8 nM dexamethasone, 48 hours (FIG. 5)): 8%
- Annexin V/PI+ cells (MM.1S cells; control cells, 80 nM dexamethasone, 48 hours (FIG. 5)): 45%
- percent inhibition of cell proliferation ([4]; Clenbuterol 0 μM (single agent), Dexamethasone (μM): 0.15, 0.076, 0.038, 0.019, 0.0095, no ICI 118,551): 47% and 38% and 70% and 63% and 56%
- percent inhibition of cell proliferation ([4]; naïve MM.1S, Salbutamol 0 μM (single agent), DEX (μM) by row: r8 2.0, r9 0.666, r10 0.23, r11 0.074, r12 0.024, r13 0.0082, r14 0.00274, r15 0.0009): 75%
- percent inhibition of cell proliferation ([5]; +10 ng/ml IL-6): 26%
- percent inhibition of cell proliferation ([5]; no IL-6): 45% and 44% and 32% and 27%
- inhibition at […] [6]: 51%
- inhibition at 0.15 µM ([7]; read-out: inhibition of proliferation, 0.15 μM dexamethasone, 10 ng/ml IL-6 (Table 53)): 24%
- inhibition at 0.15 µM ([7]; read-out: inhibition of proliferation, 0.15 μM dexamethasone, no IL-6 (Table 52)): 52%
- inhibition [8]: 6.13%
